Assays:
Assay type in all cases: cell-based
[1] = system: human melanoma cell lines; assay: Cell cycle analysis by propidium iodide staining
Procedure: Cells were treated with indicated doses of HDAC inhibitors or DMSO control and then trypsinized, washed, and rendered into a single cell suspension in 1 mL of DPBS. 4 mL ice cold 200 proof ethyl alcohol was added dropwise while vortexing to fix cells. Samples were washed and resuspended in 75% ethanol solution overnight. Then, cells were washed in PBS+0.1% Triton X-100 and counted. Equal numbers of cells were then stained in a solution containing 10 μg/mL RNAseA+1 μg/mL propidium iodide for 2 hours at room temperature. Data was then acquired using a FACSCaliber with at least 10,000 events collected. Cell cycle analysis was completed using ModFit LT (Verity Software House, Topsham, Me.).

[2] = system: acetyl-tubulin and acetyl-histone3 in human melanoma cell lines; assay: Western blot of HDAC substrate acetylation in human melanoma cells; settings: 24 hrs
Procedure: Error bars represent standard deviation from triplicates. This figure is representative of three independent experiments. (F,G,H) Cell cycle analysis of melanoma WM164, WM983A and WM793 human melanoma cell lines stained with propidium iodide. Data is representative of three experiments with similar results.
To confirm the selectivity of isotype specific HDACi, Western blot analysis was performed on the acetylation status of known HDAC substrates including histone H3 and H4, which are known Class I HDAC targets, and α-tubulin, a target for HDAC6. The doses required to impart the anti-proliferative effect coincided with that needed to increase acetylation of the respective HDAC substrates (FIG. 41F-41H). […] Conversely, HDAC6 selective inhibitors (HDAC6i) increase α-tubulin acetylation but not histone acetylation (FIG. 41F).

[3] = system: NRAS and BRAF mutant human melanoma cell lines; assay: Human melanoma cell proliferation MTS assay; settings: 24 h, panel of human melanoma cell lines
Procedure: Cell proliferation was evaluated using various pan- and isotype selective HDACi in a broad panel of human melanoma cell lines. Briefly, cells were plated at 10×10^3/well in a 96 well flat bottom plate. The following day, media was changed to that containing different concentrations of HDACi or matched DMSO vehicle concentrations diluted in complete medium done in triplicate, all with a final concentration of less than 0.1% DMSO. Cells were incubated for 24 hours at 37° C. and 5% CO2. […] All values were then normalized and expressed as a percentage of medium control growth.

## Nc1ccccc1NC(=O)c1ccc(CNc2nccc(-c3cccnc3)n2)cc1 [MGCD0103]
[1]
  cell cycle effects: variable cell cycle effects
[2]
  acetylation of α-tubulin and histone: unchanged
[3]
  concentration range inhibiting proliferation (in words): low micromolar range
